According to PubChem BioAssay (NCI):
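Briefly, cells in 96-well plates were exposed to five compound concentrations for 48 h, and endpoints were estimated by linear interpolation. At the GI50, growth is halved. TGI is the concentration that stops growth completely.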

Assays:
Assay in all cases: DTP human tumour cell line panel, 48 h
NCI-H226 lung = tested on: NCI-H226 lung
UACC-257 melanoma = tested on: UACC-257 melanoma
NCI-H460 lung = tested on: NCI-H460 lung
HCT-116 colon = tested on: HCT-116 colon
EKVX NSCLC = tested on: EKVX NSCLC
U251 CNS = tested on: U251 CNS
NCI-H522 lung = tested on: NCI-H522 lung
HCC-2998 colon = tested on: HCC-2998 colon
SF-295 CNS = tested on: SF-295 CNS

SMILES	TGI (NCI-H226 lung) [µM]	TGI (UACC-257 melanoma) [µM]	TGI (NCI-H460 lung) [µM]	TGI (HCT-116 colon) [µM]	TGI (EKVX NSCLC) [µM]	TGI (U251 CNS) [µM]	TGI (NCI-H522 lung) [µM]	TGI (HCC-2998 colon) [µM]	TGI (SF-295 CNS) [µM]	GI50 (SF-295 CNS) [µM]	GI50 (UACC-257 melanoma) [µM]	GI50 (NCI-H460 lung) [µM]	GI50 (HCT-116 colon) [µM]	GI50 (EKVX NSCLC) [µM]	GI50 (U251 CNS) [µM]	GI50 (NCI-H522 lung) [µM]	GI50 (HCC-2998 colon) [µM]	GI50 (NCI-H226 lung) [µM]
CN(C)C=Nc1ccn(CCO)c(=O)n1	> 100	> 100	> 100	> 100	> 100	> 100	> 100	> 100	–	–	–	–	–	–	–	–	–	–
COc1ccc(C/C(=N/O)C(=O)NCCc2cc(Br)c(OCCCN(C)C)c(Br)c2)cc1Br	–	30.6	33.4	28	43	32.8	31.5	28.5	34.7	–	–	–	–	–	–	–	–	–
COP(=O)(OC)C(=O)N1N(c2ccc([N+](=O)[O-])cc2)C(=O)C(C)NC1(NNc1ccc([N+](=O)[O-])cc1)P(=O)(OC)OC (configuration not stated)	> 100	> 100	> 100	> 100	> 100	> 100	> 100	> 100	–	–	–	–	–	–	–	–	–	–
N.N.N.N.N.[Co+3].[I-].[N-]=[N+]=[N-]	–	> 100	> 100	> 100	> 100	> 100	> 100	> 100	> 100	> 100	> 100	> 100	> 100	> 100	> 100	> 100	> 100	–
COc1cc(/C=C\c2cc(OC)c(OC)c(OC)c2)cc(N/C=C\C(=O)c2ccc(OC(F)(F)F)cc2)c1OC	> 100	> 100	36.4	> 100	–	> 100	6.19	> 100	30.9	4.12	43.3	3.34	3.58	–	3.46	1.96	3.71	19.9
O=C1C2Nc3ccccc3SC2C(=O)N1c1ccc(Br)cc1 (configuration not stated)	92.4	> 100	> 100	–	> 100	–	89.8	> 100	> 100	–	–	–	–	–	–	–	–	–
CC(C)OP(=O)(OC(C)C)/C(Cl)=N/Nc1ccc([N+](=O)[O-])cc1	–	> 100	> 100	> 100	> 100	> 100	> 100	> 100	–	–	–	–	–	–	–	–	–	–
COC(=O)CC(NC(=O)OCc1ccccc1)C(C(C)=O)C(=O)OCc1ccccc1 (configuration not stated)	–	> 31.6	> 31.6	> 31.6	> 31.6	> 31.6	> 31.6	–	> 100	–	–	–	–	–	–	–	–	–
